Source: patent US20120077704A1, “METHOD FOR SCREENING COMPOUNDS FOR THE TREATMENT OR PREVENTION OF COLON CANCER” (priority 2009, published 2012)

Legend:
[1] = tested on: steroid 5-alpha reductase; details: inhibition of steroid 5-alpha reductase; cited from earlier work
Caco-2 cells [2] = test: Microarray gene expression, differentially expressed genes; type: cell-based, human; details: for number of differentially expressed genes: 20 uM H2O2 or 100 uM menadione, all time points up to 24 hours
Experimental: The Caco-2 human colorectal adenocarcinoma cell line (American Type Culture Collection, Manassas, Va., USA) was grown in Dulbecco's Modified Eagle's Medium supplemented with 10% fetal bovine serum, 1% non-essential amino acids, 1% sodium pyruvate and 1% penicillin/streptomycin, at 37° C., and 5% CO2. Cells were grown until 80% confluency before medium was replaced by DMEM without supplements containing 100 μM menadione or 20 μM H202. For microarray analyses, time-matched control cells were treated in an identical manner without addition of the oxidants. […] At the indicated time points, cells were fixed in 2 ml ice cold methanol for flow cytometry or medium was replaced by 1 ml Trizol for RNA/DNA isolation. Labelling and hybridisation of RNA samples were done according to Agilent's manual for microarrays with minor modifications ((Agilent Technologies, Breda, The Netherlands). RNA (0.5 μg) was transcribed into cDNA and labelled with Cyanine 3 (Cy3) or Cyanine 5 (Cy5). When dye-incorporation was above 7 pmol/μg RNA, 2 μg cRNA of the treated and time-matched control samples was applied on […] 22K and […] 4×44K Agilent Human Oligo Microarray. Slides were scanned on a GenePix 4000B (Molecular Devices, Sunnyvale, USA) with fixed laser power (100%) and PMT gain. For each exposure, two biological repeats per time point were performed. Also swapped Cy3 and Cy5 dye labelling was done, resulting in 72 hybridisations. Images were processed with ImaGene 6.0 software (BioDiscovery Inc., Los Angeles, USA) to quantify spot signals. Irregular spots were flagged. Data from ImaGene were transported into GeneSight software version 4.1.6 (BioDiscovery Inc., Los Angeles, USA). For each spot background was subtracted and flagged spots as well as spots with a net expression level below 20 in both channels were omitted. Data were log base 2 transformed and LOWESS normalization was applied. Expression difference with the time-matched control was calculated and if more than one probe of a gene was present on the array, the replicates were combined while omitting outliers (>2 standard deviations). Only the probe sets present at both types of array platforms were selected. […] The webtool GenePattern (http://genepattern.broad.mit.edu/gp/pages/index.jsf) was used for clustering and visualization of heat maps and cluster patterns.

Caco-2 cells [3] = test: STEM time series analysis of gene expression; type: cell-based, human; details: for genes whose time-dependent expression correlates with 8-oxodG levels / genes significantly assigned to clusters of gene expression curves / number of different clusters of gene expression curves: STEM; for genes whose time-dependent expression correlates with 8-oxodG levels: log ratio transformed 8-oxodG levels; for genes significantly assigned to clusters of gene expression curves / number of different clusters of gene expression curves: 20 uM H2O2 or 100 uM menadione
Source text: For identification of genes co-regulated time-dependently and clustering with the phenotypic parameters, the software tool “Short Time-series Expression Miner” (STEM, version 1.1.2b; http://www.cs.cmu.edu/˜jernst/stem/) was used. […] Profiles are clustered by correlation analyses.

Caco-2 cells [4] = details: 75 μM H2O2, 30 minutes incubation time; cited from earlier work
Caco-2 cells [5] = test: ESR spectroscopy of cellular radical formation (DMPO spin trap); type: cell-based, human
Caco-2 cells [6] = test: Flow cytometric analysis of cell cycle distribution; type: cell-based, human; details: for percentage of cells in the S phase: 20 uM H2O2 or 100 uM menadione
Experimental: (§1) The Caco-2 human colorectal adenocarcinoma cell line (American Type Culture Collection, Manassas, Va., USA) was grown in Dulbecco's Modified Eagle's Medium supplemented with 10% fetal bovine serum, 1% non-essential amino acids, 1% sodium pyruvate and 1% penicillin/streptomycin, at 37° C., and 5% CO2. Cells were grown until 80% confluency before medium was replaced by DMEM without supplements containing 100 μM menadione or 20 μM H202. For microarray analyses, time-matched control cells were treated in an identical manner without addition of the oxidants. Samples were taken after 0.08, 0.25, 0.5, 1, 2, 4, 8, 16, or 24 hours. […] At the indicated time points, cells were fixed in 2 ml ice cold methanol for flow cytometry or medium was replaced by 1 ml Trizol for RNA/DNA isolation. Analyses of cell cycle profiles and apoptosis was performed as previously described. Cells were stained with propidium iodide; apoptotic cells were visualised by means of the primary antibody M30 CytoDeath (Roche, Penzberg, Germany) and FITC conjugated anti-mouse Ig as secondary antibody (DakoCytomation, Glostrup, Denmark). Data analysis was done using CellQuest software (version 3.1, Becton Dickinson, San Jose, USA). […] Cell cycle profiles were analyzed using ModFit LT for Mac (version 2.0). Data are presented as means ±SD.

Caco-2 cells [7] = test: MetaCore pathway analysis of differentially expressed genes; type: cell-based, human; details: for Number of pathways: significant pathways p<0.01, 20 uM H2O2 or 100 uM menadione
Source text: The p-Values were all calculated using the basic formula for hypergeometric distribution. The p-Value essentially represents the probability for a particular mapping of an experiment to a pathway to arise by chance, considering the numbers of genes in experiment versus the number of genes in the pathway within the “full set” of all genes in the pathway.

Caco-2 cells [8] = test: 8-oxodG analysis (oxidative DNA damage, HPLC-ECD); type: cell-based, human
Experimental: The Caco-2 human colorectal adenocarcinoma cell line (American Type Culture Collection, Manassas, Va., USA) was grown in Dulbecco's Modified Eagle's Medium supplemented with 10% fetal bovine serum, 1% non-essential amino acids, 1% sodium pyruvate and 1% penicillin/streptomycin, at 37° C., and 5% CO2. Cells were grown until 80% confluency before medium was replaced by DMEM without supplements containing 100 μM menadione or 20 μM H202. For microarray analyses, time-matched control cells were treated in an identical manner without addition of the oxidants. Samples were taken after 0.08, 0.25, 0.5, 1, 2, 4, 8, 16, or 24 hours. […] At the indicated time points, cells were fixed in 2 ml ice cold methanol for flow cytometry or medium was replaced by 1 ml Trizol for RNA/DNA isolation. […] Briefly, after extraction, DNA was digested into deoxyribonucleosides by treatment with nuclease P1 [0.02 U/μl] and alkaline phosphatase [0.014 U/μl]. The digest was then injected into a HPLC-ECD-system. […] UV-absorption of dG was simultaneously monitored at 260 nm. Data are presented as means ±SD.

rat hepatocytes = details: up to 2 hours after incubation; cited from earlier work
Caco-2 cells [9] = test: Flow cytometric analysis of apoptosis (M30 CytoDeath); type: cell-based, human; details: 20 uM H2O2 or 100 uM menadione
Experimental: as §1

Compound | number of differentially expressed genes (Caco-2 cells [2]) [genes] | genes whose time-dependent expression correlates with 8-oxodG levels (Caco-2 cells [3]) [genes] | genes significantly assigned to clusters of gene expression curves (Caco-2 cells [3]) [genes] | number of different clusters of gene expression curves (Caco-2 cells [3]) [clusters] | genes clustered by STEM with cell cycle phase (Caco-2 cells [3]; cell cycle phase G1) | significant pathways of genes clustered with cell cycle phase (Caco-2 cells [3]; cell cycle phase G1, p<0.01) | genes clustered by STEM with cell cycle phase (Caco-2 cells [3]; cell cycle phase G2/M) | significant pathways of genes clustered with cell cycle phase (Caco-2 cells [3]; cell cycle phase G2/M, p<0.01) | genes clustered by STEM with cell cycle phase (Caco-2 cells [3]; cell cycle phase S) | significant pathways of genes clustered with cell cycle phase (Caco-2 cells [3]; cell cycle phase S, p<0.01) | percentage of cells in the S phase (Caco-2 cells [6]; 24 h) | Number of pathways (Caco-2 cells [7]; time 0.08 hrs) | Number of pathways (Caco-2 cells [7]; time 0.25 hrs) | Number of pathways (Caco-2 cells [7]; time 0.5 hrs) | Number of pathways (Caco-2 cells [7]; time 1 hrs) | Number of pathways (Caco-2 cells [7]; time 2 hrs) | Number of pathways (Caco-2 cells [7]; time 4 hrs) | Number of pathways (Caco-2 cells [7]; time 8 hrs) | Number of pathways (Caco-2 cells [7]; time 16 hrs) | Number of pathways (Caco-2 cells [7]; time 24 hrs) | other results
CC(C)(C)NC(=O)[C@H]1CC[C@H]2[C@@H]3CC[C@H]4NC(=O)C=C[C@]4(C)[C@H]3CC[C@]12C [finasteride] | – | – | – | – | – | – | – | – | – | – | – | – | – | – | – | – | – | – | – | – | effect on cellular H2O2 production [1]: enhancement of cellular H2O2 production
OO [H2O2, hydrogen peroxide] | 1404 | 8 | 998 | 6 | 29 | 0 | 45 | 1 | 1 | 0 | significantly decreased | 8 | 15 | 17 | 6 | 4 | 5 | 8 | 5 | 6 | recovery of the gene expression response (Caco-2 cells [2]; pulse-like response towards H2O2): ≤ 1 h; Number of pathways of the gene expression cluster profile (Caco-2 cells [3]; H2O2, STEM cluster 0, p<0.01): 4; Number of pathways of the gene expression cluster profile (Caco-2 cells [3]; H2O2, STEM cluster 1, p<0.01): 1; Number of pathways of the gene expression cluster profile (Caco-2 cells [3]; H2O2, STEM cluster 2, p<0.01): 9; Number of pathways of the gene expression cluster profile (Caco-2 cells [3]; H2O2, STEM cluster 3, p<0.01): 1; Number of pathways of the gene expression cluster profile (Caco-2 cells [3]; H2O2, STEM cluster 4, p<0.01): 3; Number of pathways of the gene expression cluster profile (Caco-2 cells [3]; H2O2, STEM cluster 5, p<0.01): 4; affected genes selected out of 12931 genes (Caco-2 cells [4]): 87 genes; cellular HO. formation (DMPO.-OH) (Caco-2 cells [5]; increasing concentrations of H2O2): dose-dependent formation of DMPO.-OH; number of cells in G1 phase (Caco-2 cells [6]; 16 h after exposure, compared to control cells): significantly decreased; percentage of cells in the G1/M phase (Caco-2 cells [6]; 24 h, 20 uM H2O2): significantly increased; induction of the WNT signalling pathway (Caco-2 cells [7]; H2O2 exposure): immediately; 8-oxodG level at 16 hours after exposure (Caco-2 cells [8]; 20 uM H2O2, 16 hours): significantly elevated; time of significantly increased peak in 8-oxodG (Caco-2 cells [8]; 20 uM H2O2, compared to control cells): 15 min
CC1=CC(=O)c2ccccc2C1=O [menadione] | 979 | 3 | 680 | 4 | 311 | 15 | 1 | 0 | 74 | 4 | significant increase | 18 | 16 | 14 | 15 | 8 | 10 | 14 | 19 | 18 | recovery of the gene expression response (Caco-2 cells [2]; up to 24 hours): no recovery; 8-oxodG formation (rat hepatocytes): absence of 8-oxodG formation; induction of apoptosis (Caco-2 cells [9]): absence of apoptosis; Number of pathways of the gene expression cluster profile (Caco-2 cells [3]; menadione, STEM cluster 0, p<0.01): 12; Number of pathways of the gene expression cluster profile (Caco-2 cells [3]; menadione, STEM cluster 1, p<0.01): 18; Number of pathways of the gene expression cluster profile (Caco-2 cells [3]; menadione, STEM cluster 2, p<0.01): 4; Number of pathways of the gene expression cluster profile (Caco-2 cells [3]; menadione, STEM cluster 3, p<0.01): 8; O2.-derived DMPO.-OH signal (Caco-2 cells [5]; 100 uM, 45 minutes incubation time): showed an O2.-derived DMPO.-OH signal; cells of the G1 phase (Caco-2 cells [6]; 24 h, 100 uM menadione): significant decrease; time after which the WNT signalling pathway is induced (Caco-2 cells [7]; menadione exposure): 1 h; number of pathways significantly induced exclusively by the oxidant (Caco-2 cells [7]; p < 0.01): 24; time of highest significantly increased level of 8-oxodG (Caco-2 cells [8]; 100 uM menadione): 2 h; 8-oxodG level at 15 minutes (Caco-2 cells [8]; 100 uM menadione, 15 minutes, much lower than H2O2 at 15 minutes): significant increased level
